Converted amounts (≈) assume the structure as drawn. Where two headings read alike, the source gives them in different places.
Tests used:
[1] = test system: tsFT210 cells (mouse breast cancer cells CDC2 temperature sensitive strain); assay: Growth-inhibiting activity against animal cells (WST-8), tsFT210; type: cell-based
Method: (§1) HL-60 cells (human acute promyelocytic leukemia cell line) and K562 cells (human chronic myeloid leukemia cell line) were maintained in a culture medium in which RPMI1640 medium (manufactured by Invitrogen) was added with 10% fetal bovine serum (manufactured by Nichirei), 0.5% penicillin/streptomycin solution (manufactured by Invitrogen) at 37° C. under a humidified culture of 5% CO2. tsFT210 cells (mouse breast cancer cells CDC2 temperature sensitive strain) were maintained in a culture medium in which RPMI1640 medium (manufactured by Invitrogen) was added with 5% calf serum (manufactured by Hyclone) and 0.5% penicillin/streptomycin solution at 32° C. under a humidified culture of 5% CO2.
(§2) HL-60 cells and K562 cells were seeded in a 96-well plate (manufactured by IWAKI) so as to be 1.5×10^4 cells/well/100 μl. tsFT210 cells were seeded in a 96-well plate so as to be 1.6×10^4 cell/well/100 μl. Each of the agents in Table 5 was added at 0.5% (v/v). HL-60 cells and K562 cells were maintained at 37° C. under a humidified culture of 5% CO2 and tsFT210 cells were maintain at 32° C. under a humidified culture of 5% CO2. Forty eight hours after addition of the agent, 10 μl of a reagent SF solution for counting live cells (WST-8 reagent, manufactured by Nakarai tesque) was added to each well. HL-60 cells and K562 cells were maintained at 37° C. under a humidified culture of 5% CO2 for 30 minutes and tsFT210 cells were maintain at 32° C. under a humidified culture of 5% CO2 for one hour. After the reaction, absorbance at 450 nm was measured using a microplate reader (manufactured by PerkinElmer) and a cell proliferation rate was determined from the measurement value.

[2] = test system: HL-60 cells (human acute promyelocytic leukemia cell line); assay: Growth-inhibiting activity against animal cells (WST-8), HL-60; type: cell-based; details: for IC50: Homo sapiens, read-out: HL60 IC50
Method: as §1, §2

[3] = test system: Budding yeast (MLC30M strain); assay: Growth-inhibiting activity against yeast; type: cell-based; details: Saccharomyces cerevisiae, read-out: Yeast IC50
Method: Budding yeast (MLC30M strain) was precultured in a culture medium of 2% Polypeptone, 1% yeast extract, 2% glucose, 0.02% adenine, and 0.001% sodium dodecyl sulfate (SDS) at 30° C. Absorbance at 600 nm was measured, and yeast solution was prepared such that the absorbance is 0.05 and seeded 100 μl each in a 96-well plate. Each of the agents in Table 5 was added at 0.5% (v/v) and maintained at 30° C. Eighteen hours after addition of the agent, absorbance at 600 nm was measured using a microplate reader (manufactured by PerkinElmer) and a proliferation rate was determined from the measurement value.

[4] = test system: Escherichia coli (HO141 strain); assay: Growth-inhibiting activity against Escherichia coli; type: cell-based; details: 6 hours, absorbance at 600 nm, read-out: E. coli IC50
Method: Escherichia coli (HO141 strain) was precultured in culture medium of 0.5% Polypeptone, 0.5% Meat Extract, 0.3% NaCl, and 0.001% Sodium Dodecyl Sulfate (SDS) at 37° C. Absorbance at 600 nm was measured, and Escherichia coli solution was prepared such that the absorbance is 0.005 and seeded 100 μl each in a 96-well plate. Each of the agents in Table 5 was added at 0.5% (v/v) and maintained at 37° C. Six hours after addition of the agent, absorbance at 600 nm was measured using a microplate reader (manufactured by PerkinElmer) and a proliferation rate was determined from the measurement value.

[5] = test system: K562 cells (human chronic myeloid leukemia cell line); assay: Growth-inhibiting activity against animal cells (WST-8), K562; type: cell-based
Method: as §1, §2

[6] = molecular target: T1, Isoleucyl tRNA synthetase (Homo sapiens, UniProt P41252); assay: Inhibitory activity against isoleucyl tRNA synthetase; type: biochemical; details: HT1080 cell lysate, [3H]isoleucine, 25° C., 20 minutes; read-out: IRS IC50 (converted)
T1 construct: 10 μg protein (HT1080 cell lysate); endogenous in cells; host or cells: HT1080 cell lysate
T1 sequence (P41252 1-1262): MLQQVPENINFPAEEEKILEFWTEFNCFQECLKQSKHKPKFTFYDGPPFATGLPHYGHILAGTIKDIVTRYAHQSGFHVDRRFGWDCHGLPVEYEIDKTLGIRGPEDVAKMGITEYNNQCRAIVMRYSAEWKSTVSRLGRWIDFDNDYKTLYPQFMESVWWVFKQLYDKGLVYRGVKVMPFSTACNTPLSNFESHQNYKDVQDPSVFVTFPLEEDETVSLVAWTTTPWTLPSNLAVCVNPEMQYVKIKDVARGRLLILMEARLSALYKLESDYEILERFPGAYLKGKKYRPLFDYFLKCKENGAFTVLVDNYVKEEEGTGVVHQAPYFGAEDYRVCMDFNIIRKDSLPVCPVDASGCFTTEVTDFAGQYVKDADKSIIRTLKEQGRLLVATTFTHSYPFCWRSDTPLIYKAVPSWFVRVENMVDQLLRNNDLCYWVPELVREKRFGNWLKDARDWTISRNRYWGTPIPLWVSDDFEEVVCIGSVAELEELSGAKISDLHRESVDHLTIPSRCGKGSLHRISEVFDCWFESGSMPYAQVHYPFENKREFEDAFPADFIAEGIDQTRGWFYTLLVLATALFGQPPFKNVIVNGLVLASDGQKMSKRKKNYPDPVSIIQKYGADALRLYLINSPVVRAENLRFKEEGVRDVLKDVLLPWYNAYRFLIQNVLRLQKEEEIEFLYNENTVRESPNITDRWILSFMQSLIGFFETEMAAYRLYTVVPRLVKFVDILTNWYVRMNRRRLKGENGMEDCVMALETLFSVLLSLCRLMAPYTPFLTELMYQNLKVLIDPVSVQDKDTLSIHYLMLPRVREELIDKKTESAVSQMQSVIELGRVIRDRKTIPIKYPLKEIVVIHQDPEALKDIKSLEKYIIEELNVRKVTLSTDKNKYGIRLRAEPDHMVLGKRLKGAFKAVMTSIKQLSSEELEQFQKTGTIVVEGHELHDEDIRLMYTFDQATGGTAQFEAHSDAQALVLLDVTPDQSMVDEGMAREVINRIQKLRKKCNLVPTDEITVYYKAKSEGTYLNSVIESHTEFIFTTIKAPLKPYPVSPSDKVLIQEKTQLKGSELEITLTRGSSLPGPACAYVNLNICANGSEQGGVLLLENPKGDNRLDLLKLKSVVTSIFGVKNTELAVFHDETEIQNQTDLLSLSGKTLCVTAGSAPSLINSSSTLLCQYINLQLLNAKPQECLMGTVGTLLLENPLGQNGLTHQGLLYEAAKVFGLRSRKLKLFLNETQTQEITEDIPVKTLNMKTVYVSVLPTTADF
Method: To a solution for enzymatic reaction [20 mM imidazole, pH 7.5, 75 mM MgCl2, 0.5 mM DTT, 1 U/ml tRNA (E. coli origin, manufactured by Sigma), 3 mM ATP, 1 μM isoleucine, 10 μCi/ml [^3H]isoleucine (manufactured by GE Healthcare), 10 μg protein (HT1080 cell lysate)], each of the agents in Table 5 was added at 1% (v/v) so as to attain a total amount of 100 μl and a reaction was carried out at 25° C. for 20 minutes. One mg/ml BSA solution (400 μl) and 10% TCA solution (500 μl) were then added thereto to terminate the reaction and left to stand at 4° C. overnight. A precipitate obtained by a centrifugal operation was transferred onto GF-C filter (manufactured by Whatman), washed three times with 5% TCA solution, followed by drying the filter. Two milliliters of aquasol-2 (manufactured by PerkinElmer) and the filter were placed in a vial and vigorously stirred, and then the amount of [^3H]isoleucine was measured by a liquid scintillation counter (manufactured by Beckman) to determine a rate of enzyme activity.

[7] = tsFT210 cells, 32° C., 48 hours after addition of the agent, WST-8, read-out: tsFT210 IC50
[8] = HL-60 cells, 48 hours after addition of the agent, WST-8
[9] = MLC30M strain, 18 hours, absorbance at 600 nm
[10] = K562 cells, 48 hours after addition of the agent, WST-8, read-out: K562 IC50
[11] = tsFT210, 48 h, read-out: tsFT210 IC50
[12] = K562, 48 h, read-out: K562 IC50

Compound | IC50 [1, 7] | IC50 [2, 8] | IC50 [3, 9] | IC50 [4] | IC50 [5, 10] | IC50 [1, 11] | IC50 [6] | IC50 ([2]; HL-60, 48 h) | IC50 ([3]; 18 h) | IC50 [5, 12] | cancer cell growth-inhibiting activity (in words) ([2]; summary of Table 5 (HL60, K562, tsFT210), RM-T as compared with RM-A)
CCCCC(CCC(O)CCC(C)C(O)C/C=C(C)/C=C/C(O)C(C)/C=C/C(=O)O)C(O)/C=C/C(C)=C/CC(O)CC (stereo not drawn) [RM-A1a] | > 30 µg/mL | 20.9 µg/mL (≈ 35.3 µM) | > 50 µg/mL | > 50 µg/mL | > 30 µg/mL |  |  |  |  |  | 
CCCCC1CCC(CCC(C)C(O)C/C=C(C)/C=C/C(O)C(C)/C=C/C(=O)O)OC1/C=C/C(C)=C/CC(O)CC (stereo not drawn) [RM-A1b] | 17.4 µg/mL (≈ 30.3 µM) | 7.4 µg/mL (≈ 12.9 µM) | > 50 µg/mL | 31.9 µg/mL (≈ 55.5 µM) | 21.1 µg/mL (≈ 36.7 µM) |  |  |  |  |  | 
CCCCC1CCC2(CCC(C)C(C/C=C(C)/C=C/C(O)C(C)/C=C/C(=O)O)O2)OC1/C=C/C(C)=C/CC(O)CC (stereo not drawn) [RM-A1c] |  |  |  | > 50 µg/mL |  | 6.4 µg/mL (≈ 11.2 µM) | 16.8 µM | 6.3 µg/mL (≈ 11 µM) | > 50 µg/mL | 3.4 µg/mL (≈ 5.94 µM) | 
CCCCC(CCC(O)CCC(C)C(O)C/C=C(C)/C=C/C(O)C(C)/C=C/C(=O)O)C(O)/C=C/C(C)=C/C(=O)O (stereo not drawn) [RM-A1e] | > 30 µg/mL | > 30 µg/mL | 48.2 µg/mL (≈ 85.3 µM) | > 50 µg/mL | > 30 µg/mL |  |  |  |  |  | 
CCCCC(CCC(O)CCC(C)C(O)C/C=C(C)/C=C/C(O)C(C)/C=C/C(=O)O)C(O)C/C=C(C)/C=C/C(=O)CC (stereo not drawn) [RM-A2b] | > 30 µg/mL | > 30 µg/mL | > 50 µg/mL | > 50 µg/mL | > 30 µg/mL |  |  |  |  |  | 
CCCCC1CCC2(CCC(C)C(C/C=C(C)/C=C/C(O)C(C)/C=C/C(=O)O)O2)OC1/C=C/C(C)=C/CO (stereo not drawn) [RM-A6a] |  |  |  | 24.6 µg/mL (≈ 46.3 µM) |  | 6.8 µg/mL (≈ 12.8 µM) |  | 7 µg/mL (≈ 13.2 µM) | 31.5 µg/mL (≈ 59.4 µM) | 14.8 µg/mL (≈ 27.9 µM) | 
CCCCC1CCC2(CCC(C)C(C/C=C(C)/C=C/C(O)C(C)/C=C/C(=O)O)O2)OC1/C=C/C(C)=C/COC(=O)CC (stereo not drawn) [RM-A8a] |  |  |  | > 50 µg/mL |  | 22.3 µg/mL (≈ 38 µM) |  | 18 µg/mL (≈ 30.7 µM) | > 50 µg/mL | 18.5 µg/mL (≈ 31.5 µM) | 
CCCC[C@@]1(OC(=O)CCC(=O)O)CC[C@]2(CC[C@H](C)[C@@H](C/C=C(C)/C=C/[C@H](O)[C@@H](C)/C=C/C(=O)O)O2)O[C@H]1/C=C/C(C)=C/CO [RM-A9a] |  |  |  | > 50 µg/mL |  | 24.6 µg/mL (≈ 38 µM) |  | 21 µg/mL (≈ 32.5 µM) | 26.4 µg/mL (≈ 40.8 µM) | 22.3 µg/mL (≈ 34.5 µM) | 
CCCC[C@H]1CC[C@]2(CC[C@H](C)[C@@H](C/C=C(C)/C=C/[C@H](O)[C@@H](C)/C=C/C(=O)OC)O2)O[C@H]1/C=C/C(C)=C/C(=O)O [RM-T methyl-ester] |  |  |  | > 50 µg/mL |  | 8.2 µg/mL (≈ 14.7 µM) |  | 0.9 µg/mL (≈ 1.61 µM) | > 50 µg/mL | 2.5 µg/mL (≈ 4.47 µM) | high
CC(/C=C/[C@H](O)[C@@H](C)/C=C/C(=O)O)=C\C[C@H]1O[C@@]2(CC[C@H](C)[C@H](/C=C/C(C)=C/C(=O)O)O2)CC[C@@H]1C [SF-A, spirofungin A, reference compound] | > 30 µg/mL | 1.2 µg/mL (≈ 2.39 µM) | 0.3 µg/mL (≈ 0.597 µM) | > 50 µg/mL | 3.4 µg/mL (≈ 6.76 µM) |  |  |  |  |  | 
CC(/C=C/[C@H](O)[C@@H](C)/C=C/C(=O)O)=C\C[C@H]1O[C@]2(CC[C@H](C)[C@H](/C=C/C(C)=C/C(=O)O)O2)CC[C@@H]1C [SF-B, spirofungin B, reference compound] | > 30 µg/mL | > 30 µg/mL | 4 µg/mL (≈ 7.96 µM) | > 50 µg/mL | > 30 µg/mL |  |  |  |  |  | 
